Results on 1 substance are retold here after patent US9861096B2, “Biodegradable chemical delivery system” (Cornell University, priority 2008, dated 2018).

This series in a line: Identification of Columbia Blue in release media by LC/MS (stability). The series is classed as physicochemical. Particulars: water at room temperature and PBS pH 7.4 at 37° C., 16 week release experiments. As to the method:
The concentration of Columbia Blue was determined using Liquid Chromatography/Mass Spectroscopy (LC/MS) (Agilent Technologies 6130 Quadrupole LC/MS), and the Columbia Blue was identified using mass spectroscopy. The column used was a Restek Ultra C18, 5 μm, 250×4.6 mm. The mobile phase consisted of 60% acetonitrile and 40% water at a flow rate of 1.0 ml/min. The concentration was determined using UV detection at a wavelength of 374 nm.
A model pesticide, Columbia Blue, was chosen following Briggs's “rule of 3” (Briggs, G. G., Uptake of Agrochemicals & Pharmaceuticals ‘Predicting uptake & movement of agrochemicals from physical properties’, in SCI Meeting. 1997) and Clarke-Delaney's “guide of 2” (Clarke, E. D. and J. S. Delaney, Designing Drugs and Crop Protectants: Processes, Problems and Solutions, ed. D. L. M. Ford, J. Dearden, H. V. de Waterbeemd. 2003: Blackwell Publishing, Malden). During the release measurements, Columbia Blue was identified by the LC/MS. The retention time of Columbia Blue of HPLC spectrum remained unchanged at 9.8 minutes.

Columbia Blue: the “degradation of Columbia Blue in the release media” value was “did not degrade”.
